# From patent US10821064B2, “Anti-dandruff agents” (Croda International PLC, priority 2015, dated 2020)
# Legend:
# [1] = test system: Malassezia furfur (ATCC #38593); test: Malassezia furfur growth inhibition assay (96-well, Alamar blue); format: cell-based
# Method: Malassezia furfur (ATCC #38593) was cultured on Media C agar for 7 days at 37° C. Yeast colonies were then harvested into 0.9% saline sterile diH2O and diluted to approximately 1.5×10^6 CFU/mL using a 0.5 MacFarland standard (Fisher # R20410) to create an assay inoculum. Assay inoculum was added to sterile Media C broth to a final concentration of 4.5×10^4 CFU/mL. Assays were carried out in 96 well plates with a final well volume of 100 μL. Extract fractions and pure compounds were tested in triplicate against each organism. Extract fractions and pure compounds were re-suspended in sterile 20% DMSO. Extract fractions were assayed at two concentrations (50 and 250 μg/mL) with a final well volume concentration of 2% DMSO while pure compounds were serially diluted to generate a range of eight concentrations (128 μg/mL to 1 μg/mL) in a final well volume concentration of 2% DMSO. Each plate contained eight un-inoculated positive controls (media+20% DMSO), eight untreated negative controls (Media+20% DMSO+organism), and one column containing a concentration range of a ketoconazole as a control antibiotic. The assay plate was incubated at 37° C. for 5 days after which growth within the wells were visualised and photographed with a UVP Biospectrum 500 imaging system. Alamar blue was then added to each well at 10% of the culture volume (11 μL in 100 μL). Fluorescence was monitored using a BioTek Synergy HT plate reader at 530/25 excitation, 590/35 emission and 35 sensitivity at both time zero and 4 hrs after Alamar blue was added. After subtracting the time zero emission 590 nm measurement from the final reading the inferred percentage of microorganism survival relative to vehicle control wells were calculated and the IC50 was determined.
# [2] = test system: Adult human epidermal keratinocytes (Heka); test: Keratinocyte cytotoxicity assay (Alamar blue); format: cell-based
# Method: Adult human epidermal keratinocytes (Heka) isolated from skin (Invitrogen # C-005-5C) were grown and maintained in 15 mL of EPilife medium (Invitrogen # M-EPI-500) supplemented with HKGS growth supplements (Invitrogen # S-001-5) (0.2% v/v bovine pituitary extract (BPE), 5 μg/mL bovine insulin, 0.18 μg/mL hydrocortisone, 5 μg/mL bovine transferrin, 0.2 ng/mL human epidermal growth factor) and 50 μg/mL gentamicin (Sigma # G1397-10ML) in T75 cm^2 cell culture flasks (VWR # CABD353136) and incubated at 37° C. in a humidified atmosphere of 5% CO2. Growth medium was refreshed every 2 days until the cells reached 50% confluency and then the medium was refreshed every 24 hrs until 80% confluency was obtained.
# At 80% confluency, the cells were counted, diluted and plated into 96 well treated cell culture plates (VWR #29442-054) at a cell density of 10000 cells per well in 90 μL of respective growth medium. […]
# (§1) All samples were tested in triplicate. […] Fluorescence was monitored using a BioTek Synergy HT plate reader at 530/25 excitation, 590/35 emission and 35 sensitivity at both time zero and 4 hrs after Alamar blue was added. After subtracting the time zero emission 590 nm measurement from the final reading the inferred percentage of microorganism survival relative to vehicle control wells were calculated and the IC50 was determined.
# [3] = test system: Human foreskin BJ fibroblast cells (ATCC CRL-2522); test: Fibroblast cytotoxicity assay (Alamar blue); format: cell-based
# Method: Human foreskin BJ fibroblast cells (ATCC CRL-2522) were grown and maintained in 15 mL of Eagle's minimal essential medium (Sigma M5650) supplemented with 10% fetal bovine serum (VWR # CA95043-976) and […] penicillin and 0.1 mg/mL streptomycin (VWR # CA12001-692) in T75 cm^2 cell culture flasks (VWR # CABD353136) at 37° C. in a humidified atmosphere of 5% CO2. Culture medium was refreshed every two to three days and cells were not allowed to exceed 80% confluency.
# At 80% confluency, the cells were counted, diluted and plated into 96 well treated cell culture plates (VWR #29442-054) at a cell density of 10000 cells per well in 90 μL of respective growth medium. All media used for the assay were the same without the addition of antibiotics. The plates were incubated at 37° C. in a humidified atmosphere of 5% CO2 to allow cells to adhere to the plates for 24 hrs before treatment. DMSO was used as the vehicle at a final concentration of 1% in the wells. […]
# as §1
# M. furfur = test: Anti-fungal effect against M. furfur in a shampoo type formulation; format: cell-based, Malassezia furfur
# Method: Experimentation was carried out to assess the anti-fungal effect of the fumagillin derivative alone and in combination with pseurotin A against M. furfur in a shampoo type formulation.
# Compositions of the fumagillin derivative with and without pseurotin A were created and suspended into the baby shampoo. The shampoo mixture was then diluted out into the assay in a similar manner to Head & Shoulders, so that various dilution points in the assay represented multiple sub-inhibitory concentrations of the fumagillin derivative and pseurotin A.
"IC50 ([1]; Malassezia furfur, ATCC38593, 120 h, 37° C., 5 days, Alamar blue)","MIC ([1]; Malassezia furfur, ATCC38593, 120 h, 37° C., 5 days, pure compound 128 to 1 μg/mL)","MIC (M. furfur; Malassezia furfur, fumagillin derivative alone, suspended in baby shampoo)",Structure (SMILES),"IC50 ([2]; Homo sapiens, HEKa, 24 hrs treatment, cytotoxicity)","Keratinocyte MIC ([2]; human, 24 h)","IC50 ([3]; Homo sapiens, Fibroblast, 24 hrs treatment, cytotoxicity)","Fibroblast MIC ([3]; human, 24 h)",antifungal effect against Malassezia yeasts ([1]; screening of extracts),"antifungal effect against M. furfur (M. furfur; shampoo type formulation, alone or as mixture at sub-MIC concentrations)"
~0.7 mg/L,~2 mg/L,1.25 mg/L,CO[C@@H]1[C@H](OC(=O)/C=C/[C@H]2O[C@@H]2C)CC[C@]2(CO2)[C@H]1[C@@]1(C)O[C@@H]1CC=C(C)C [Fumagillin derivative],> 64 mg/L,>64 mg/L,> 64 mg/L,>64 mg/L,–,–
–,–,–,"CC/C=C\[C@H](O)[C@H](O)C1=C(C)C(=O)[C@]2(O1)C(=O)N[C@@](OC)(C(=O)c1ccccc1)[C@@H]2O [Pseurotin A, pseurotin A, reference compound]",–,–,–,–,some activity against M. furfur,antifunimgal effect against M. furfur was observed
